For one data set, the system named is VZV-ORF57-ΔTKTS. The data set is described as follows: microbe, parasite or virus in culture. It counts as cell-based, Varicella zoster virus. The conditions noted are these: Human alphaherpesvirus 3, ARPE-19.
Data set [1] deals with VZV-ORF57-Luc. The data set is described as follows: microbe, parasite or virus in culture. It counts as cell-based, Varicella zoster virus. The conditions noted are these: Human alphaherpesvirus 3, ARPE-19.
Details of data set [2]: method as in PMID 25051026. The conditions noted are these: mice treated with L-BHDU; cited from earlier work.
In another data set the test system is VZV-ORF57-ΔTK. Put plainly: microbe, parasite or virus in culture. It counts as cell-based, Varicella zoster virus. The note with it: Human alphaherpesvirus 3, ARPE-19.
On the set-up of data set [3]: method as in PMID 25051026. The note with it: measured in various mouse organs; cited from earlier work.
Data set [4] concerns human foreskin fibroblasts (HFFs). Also on record: method as in PMID 25051026. The note with it: cited from earlier work.
Data set [5] has as its system VZV-ORF57-Luc. The data set is described as follows: microbe, parasite or virus in culture. The note with it: Human alphaherpesvirus 3, ARPE-19, cell-free VZV-ORF57-Luc, ARPE-19 cells, 72 hpi, bioluminescence imaging.
For data set [6], the system named is VZV-ORF57-Luc.
Data set [7] in a line: Neutral red dye uptake cytotoxicity assay in ARPE-19 cells. The note with it: human.
The conditions of data set [8]: mouse, in vivo; cited from earlier work.
For a further data set, the system named is VZV-ORF57-ΔTS. Put plainly: microbe, parasite or virus in culture. Format: cell-based, Varicella zoster virus. The note with it: Human alphaherpesvirus 3, ARPE-19.
Data set [9] is described as follows: Oral pharmacokinetic absorption study in BALB/c mice (plasma, LC-MS/MS). It counts as in vivo. The conditions noted are these: both sexes, mouse, analyte L-BHDU in plasma, 11.4 mg/kg L-BHDU oral, BALB/c mice. As to the method: A pharmacokinetic absorption study was performed in BALB/c mice (Charles River). A single equimolar dose of 22.5 mg/kg POM-L-BHDU-MP or 11.4 mg/kg L-BHDU was dissolved in Cremophor–dimethyl sulfoxide (DMSO)–saline (1:1:8) and administered by oral gavage to two groups of mice with equal numbers of male and female mice (N = 15 each male and female).
Plasma was separated from red blood cells and immediately frozen at −80 °C.
This animal protocol #282 was approved by the IACUC at SUNY Upstate Medical University, which has been fully accredited by AAALAC since 7/31/1999. This method was previously used to evaluate L-BHDU effects on 5-fluorouracil metabolism.[16] Briefly, a single equimolar dose of 22.5 mg/kg POM-L-BHDU-MP or 11.4 mg/kg L-BHDU was dissolved in Cremophor–DMSO–saline (1:1:8) and administered by oral gavage to two groups of BALB/c mice (Charles River) with equal numbers of male and female mice (N = 15 each male and female). Six untreated mice were used for blank controls and were labeled time 0. At 20, 40, 60, and 120 min, three mice from the POM-L-BHDU-MP group and three mice from the L-BHDU group were anesthetized with inhaled isoflurane and then exsanguinated by cardiac puncture. Blood samples were collected into a tube containing heparin. Plasma was separated from red blood cells by centrifugation at 10,000 rpm for 5 min. Plasma was transferred to a new tube and immediately frozen at −80 °C.
Plasma samples were thawed, and exactly 0.95 mL was removed for analysis. The internal standard azidothymidine was added to mouse plasma samples at a final concentration of 20 ng/mL. Proteins were precipitated from the plasma by adding 2× volumes of methanol, then the samples were clarified by centrifugation. The supernatants were dried using an N-EVAP 116 analytical nitrogen evaporator and then reconstituted with 50% methanol in water. LC-MS/MS was used to analyze the concentrations of POM-L-BHDU-MP, L-BHDU, and L-BHDU-MP. Calibration curves were made using BALB/c mouse plasma (Innovative Research, Inc. Novi MI) prior to analyzing the experimental samples.
The primary stock solutions for the calibration were prepared at 0.5 mg/mL for L-BHDU, 1 mg/mL for POM-L-BHDU-MP, and 1 mg/mL for L-BHDU-MP. The primary stock solutions were diluted to working solutions that were in turn used to spike the biological matrix of interest. L-BHDU calibration points were 100.0, 400.0, 800.0, 1000.0, 4000.0, 6000.0, 8000.0, 10,000.0, and 12,000.0 ng/mL. L-BHDU-MP calibration points were 100.0, 200.0, 400.0, 800.0, 1000.0, 2000.0, 4000.0, 6000.0, and 8000.0 ng/mL. The ISTD working solution of AZT was prepared at 20 ng/mL. The standard stock solutions were stored in −80 °C freezer until used. […] The samples were analyzed in a negative ESI mode. […]

Data set [10] deals with VZV. The note with it: 15 mg/kg/day, SCID-hu mouse with human fetal skin xenografts; cited from earlier work. For orientation: A xenograft is tissue or cells of one species grown in another, often human tumour cells in immunodeficient mice.
The subject of data set [11] is VZV. On the set-up: method as in PMID 25051026. The conditions noted are these: VZV in human foreskin fibroblasts (HFFs); cited from earlier work.
Setting [12] is: selectivity index = CC50/EC50, ARPE-19 cells.

Read-outs that look alike come from different tables or passages of the source.

We go through two molecules from publication PMC10226046, “Prodrug Strategies for the Development of β-L-5-((E)-2-Bromovinyl)-1-((2S,4S)-2-(hydroxymethyl)-1,3-(dioxolane-4-yl))uracil (L-BHDU) against Varicella Zoster Virus (VZV)” (Journal of Medicinal Chemistry, 2023).

In general, EC50 refers to the concentration needed to bring the measured effect to its halfway point. As a reminder, the Cmax is the peak of the concentration-time curve. By Tmax is commonly meant the time from dosing to the highest level. The AUC is the area under the concentration-time curve, a measure of exposure. Read a high AUC as high exposure.

As to `O=c1[nH]c(=O)n([C@@H]2CO[C@H](CO)O2)cc1/C=C/Br` [L-BHDU (1), β-L-5-((E)-2-bromovinyl)-1-((2S,4S)-2-(hydroxymethyl)-1,3-(dioxolane-4-yl))uracil], the EC50 in the data set on VZV-ORF57-ΔTKTS was above 2000 nM; in the data set with VZV-ORF57-Luc [1], 180 nM; in the data set on VZV-ORF57-ΔTK, above 2000 nM; with VZV-ORF57-Luc [5], 25.8 nM; with VZV-ORF57-ΔTS, 28 nM. Also, the “5-FU accumulation in treated mice” value in [2] is reported as “did not accumulate”. Besides, in data set [3], the brain penetration result is reported as “did not penetrate the brain”. In addition, in [4] (HFFs), the “not cytotoxic up to” value is “up to 200 μM”. Moreover, the “SI (CC50/EC50)” value with VZV-ORF57-Luc [6] and in the data set with VZV-ORF57-Luc [6] (setting [12]) was above 3878 each time. In data set [7], this molecule came in with a CC50 at 72 h above 100000 nM. In addition, the “well tolerated up to (dose)” value in data set [8] is given as “up to 150 mg/kg”. In data set [9], this molecule had a Cmax at 2 h of 7100 ng/mL. Further, the time of peak concentration (Tmax) at 2 h in data set [9] is 2 h. Also, in [9] (0 to 120 min), the AUC at 2 h was 12700 ng·h/mL. In the data set on VZV [10], the “effect on VZV replication” value is recorded as “effectively reduced VZV replication”.

On to `CC(C)[C@@H](N)C(=O)OC[C@H]1OC[C@@H](n2cc(/C=C/Br)c(=O)[nH]c2=O)O1.Cl` [L-BHDU-L-valine (17), L-BHDU-5′-O-L-valyl Ester Hydrochloride], for which the CC50 in data set [4] was above 200000 nM. The EC50 in the data set on VZV-ORF57-Luc [5] was 30 nM; in the data set with VZV-ORF57-Luc [6] (cell-free VZV-ORF57-Luc, ARPE-19 cells, 72 hpi, bioluminescence imaging), 30.1 nM; in the data set on VZV [11], 30 nM. Besides, the “SI (CC50/EC50)” value with VZV-ORF57-Luc [6] is on record as above 3322; with VZV-ORF57-Luc [6] (setting [12]), above 3322; in the data set with VZV-ORF57-Luc [6] (selectivity index = CC50/EC50, ARPE-19 cells, listed as 17), above 3322. In data set [7], this molecule displayed a CC50 at 72 h above 100000 nM.
